Test results from patent publication US8729081B2, “Compositions and methods for treating alcohol use disorders, pain and other diseases” (VM Discovery Inc., priority 2008, dated 2014).

Columns and labels:
Test in all cases: Kinase profiling
Format in all cases: biochemical
cMET = biological target: T1, cMET (Homo sapiens, UniProt P08581)
T1 construct: purchased Reaction Biology Corp
Experimental: [The procedure below names another target; the source lists this target under the same test.] (§1) Kinase profiling was performed using HotSpot technology (Reaction Biology Corp. 11 Malvern, Pa., USA). This technology is a radioisotope-based P81 filter-binding assay. Compound of the present invention were dissolved in pure DMSO to make a 10 mM stock, then diluted in pure DMSO to make a serial dilution based on the IC50 ranges. PKCε (h) (0.4 nM, human recombinant protein expressed in insect cells. Mw=83.7 kDa) and substrate (20 μM peptide substrate, [RFARKGSLRQKNV]) were diluted in the reaction buffer (20 mM HEPES-HCl, pH 7.5, 10 mM MgCl2, 1 mM EGTA, 0.02% Brij35, 0.1 mM Na3VO4, 0.02 mg/ml BSA, 2 mM DTT, and 1% DMSO), and then 5 nL of compound was delivered into PKCε (h) and substrate mixture by acoustic technology using Echo 550 (LabCyte Inc., Sunnyvale, Calif.). The reaction was initiated by the addition of [γ-33P-ATP] into the reaction mixture (final concentration was 10 μM) and stopped after at least 40 min incubation at room temperature. The unreacted free 33P-ATP was washed away before detection.

PKCzeta = biological target: T2, PKCzeta (Homo sapiens, UniProt Q05513)
T2 construct: purchased Reaction Biology Corp
Experimental: [The procedure below names another target; the source lists this target under the same test.] as §1

PKCtheta = biological target: T3, PKCtheta (Homo sapiens, UniProt Q04759)
T3 construct: purchased Reaction Biology Corp
Experimental: [The procedure below names another target; the source lists this target under the same test.] as §1

PDPK1 = biological target: T4, PDPK1 (Homo sapiens, UniProt O15530)
T4 construct: purchased Reaction Biology Corp
Experimental: [The procedure below names another target; the source lists this target under the same test.] as §1

FYN = biological target: T5, FYN (Homo sapiens, UniProt P06241)
T5 construct: purchased Reaction Biology Corp
T5 sequence (P06241 whole entry): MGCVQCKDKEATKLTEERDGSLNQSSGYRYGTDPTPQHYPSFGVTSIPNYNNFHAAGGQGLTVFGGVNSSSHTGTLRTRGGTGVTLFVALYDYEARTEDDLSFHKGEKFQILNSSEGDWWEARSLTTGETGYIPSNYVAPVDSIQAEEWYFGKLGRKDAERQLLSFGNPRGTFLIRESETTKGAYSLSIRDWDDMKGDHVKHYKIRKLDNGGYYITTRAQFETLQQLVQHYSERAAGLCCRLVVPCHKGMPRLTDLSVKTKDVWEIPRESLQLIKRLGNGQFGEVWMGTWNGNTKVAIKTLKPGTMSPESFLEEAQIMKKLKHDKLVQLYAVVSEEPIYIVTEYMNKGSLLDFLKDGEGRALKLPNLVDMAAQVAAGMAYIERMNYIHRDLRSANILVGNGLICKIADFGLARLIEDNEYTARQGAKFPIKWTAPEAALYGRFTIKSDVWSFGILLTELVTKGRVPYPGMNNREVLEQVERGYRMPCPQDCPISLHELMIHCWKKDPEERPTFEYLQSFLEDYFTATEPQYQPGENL
Experimental: [The procedure below names another target; the source lists this target under the same test.] as §1

PKCdelta = biological target: T6, PKCdelta (Homo sapiens, UniProt Q05655)
T6 construct: purchased Reaction Biology Corp
Experimental: [The procedure below names another target; the source lists this target under the same test.] as §1

PKCbeta2 = biological target: T7, PKCbeta2 (Homo sapiens, UniProt P05771)
T7 construct: purchased Reaction Biology Corp
Experimental: [The procedure below names another target; the source lists this target under the same test.] as §1

CDK1/cyclinB = biological target: T8, CDK1/cyclinB (Homo sapiens, UniProt P06493)
T8 construct: purchased Reaction Biology Corp
Experimental: [The procedure below names another target; the source lists this target under the same test.] as §1

PKCiota = biological target: T9, PKCiota (Homo sapiens, UniProt P41743)
T9 construct: purchased Reaction Biology Corp
T9 sequence (P41743 whole entry): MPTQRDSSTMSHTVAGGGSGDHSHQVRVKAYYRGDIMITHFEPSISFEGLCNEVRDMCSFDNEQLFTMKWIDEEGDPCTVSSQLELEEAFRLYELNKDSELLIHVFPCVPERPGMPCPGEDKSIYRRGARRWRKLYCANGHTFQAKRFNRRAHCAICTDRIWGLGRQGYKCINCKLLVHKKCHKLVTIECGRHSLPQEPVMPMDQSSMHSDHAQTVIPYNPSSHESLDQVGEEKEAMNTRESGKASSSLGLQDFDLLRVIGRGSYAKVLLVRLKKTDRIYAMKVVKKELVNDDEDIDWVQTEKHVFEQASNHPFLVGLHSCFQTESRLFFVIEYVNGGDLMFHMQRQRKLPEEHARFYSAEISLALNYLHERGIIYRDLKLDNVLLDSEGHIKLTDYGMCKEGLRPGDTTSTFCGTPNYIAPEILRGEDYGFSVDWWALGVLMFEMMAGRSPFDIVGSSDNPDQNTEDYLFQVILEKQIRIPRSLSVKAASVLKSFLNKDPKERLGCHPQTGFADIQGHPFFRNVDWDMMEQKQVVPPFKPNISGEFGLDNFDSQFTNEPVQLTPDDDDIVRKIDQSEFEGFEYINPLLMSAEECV
Experimental: [The procedure below names another target; the source lists this target under the same test.] as §1

Akt1 = biological target: T10, Akt1 (Homo sapiens, UniProt P31749)
T10 construct: purchased Reaction Biology Corp
T10 sequence (P31749 whole entry): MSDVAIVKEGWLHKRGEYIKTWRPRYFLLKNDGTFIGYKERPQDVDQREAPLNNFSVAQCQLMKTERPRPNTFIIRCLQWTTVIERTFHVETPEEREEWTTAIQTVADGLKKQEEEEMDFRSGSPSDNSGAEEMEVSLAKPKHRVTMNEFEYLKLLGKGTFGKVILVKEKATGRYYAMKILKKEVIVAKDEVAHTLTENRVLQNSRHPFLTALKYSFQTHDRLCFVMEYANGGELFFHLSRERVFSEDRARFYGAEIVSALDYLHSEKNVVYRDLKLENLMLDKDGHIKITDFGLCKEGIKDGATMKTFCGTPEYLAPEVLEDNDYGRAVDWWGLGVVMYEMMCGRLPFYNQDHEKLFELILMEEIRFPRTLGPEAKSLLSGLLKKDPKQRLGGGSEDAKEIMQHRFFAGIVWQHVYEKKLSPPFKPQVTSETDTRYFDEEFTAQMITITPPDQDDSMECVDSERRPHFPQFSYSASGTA
Experimental: [The procedure below names another target; the source lists this target under the same test.] as §1

CAMKIIa_alpha = biological target: T11, CAMKIIa_alpha (Homo sapiens, UniProt Q9UQM7)
T11 construct: purchased Reaction Biology Corp
T11 sequence (Q9UQM7 whole entry): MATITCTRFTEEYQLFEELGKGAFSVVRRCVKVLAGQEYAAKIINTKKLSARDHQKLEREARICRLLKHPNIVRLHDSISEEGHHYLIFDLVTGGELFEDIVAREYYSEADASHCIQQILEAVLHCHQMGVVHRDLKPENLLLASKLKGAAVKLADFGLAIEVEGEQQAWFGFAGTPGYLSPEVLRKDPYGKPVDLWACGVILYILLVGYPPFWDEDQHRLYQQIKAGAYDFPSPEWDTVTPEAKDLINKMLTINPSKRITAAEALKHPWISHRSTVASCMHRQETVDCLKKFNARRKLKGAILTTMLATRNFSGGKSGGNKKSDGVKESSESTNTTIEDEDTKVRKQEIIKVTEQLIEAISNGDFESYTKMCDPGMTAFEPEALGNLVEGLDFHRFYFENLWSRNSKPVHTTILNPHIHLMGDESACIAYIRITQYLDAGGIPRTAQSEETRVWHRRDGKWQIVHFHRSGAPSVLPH
Experimental: [The procedure below names another target; the source lists this target under the same test.] as §1

PKCmu = biological target: T12, PKCmu (Homo sapiens, UniProt Q15139)
T12 construct: purchased Reaction Biology Corp
T12 sequence (Q15139 whole entry): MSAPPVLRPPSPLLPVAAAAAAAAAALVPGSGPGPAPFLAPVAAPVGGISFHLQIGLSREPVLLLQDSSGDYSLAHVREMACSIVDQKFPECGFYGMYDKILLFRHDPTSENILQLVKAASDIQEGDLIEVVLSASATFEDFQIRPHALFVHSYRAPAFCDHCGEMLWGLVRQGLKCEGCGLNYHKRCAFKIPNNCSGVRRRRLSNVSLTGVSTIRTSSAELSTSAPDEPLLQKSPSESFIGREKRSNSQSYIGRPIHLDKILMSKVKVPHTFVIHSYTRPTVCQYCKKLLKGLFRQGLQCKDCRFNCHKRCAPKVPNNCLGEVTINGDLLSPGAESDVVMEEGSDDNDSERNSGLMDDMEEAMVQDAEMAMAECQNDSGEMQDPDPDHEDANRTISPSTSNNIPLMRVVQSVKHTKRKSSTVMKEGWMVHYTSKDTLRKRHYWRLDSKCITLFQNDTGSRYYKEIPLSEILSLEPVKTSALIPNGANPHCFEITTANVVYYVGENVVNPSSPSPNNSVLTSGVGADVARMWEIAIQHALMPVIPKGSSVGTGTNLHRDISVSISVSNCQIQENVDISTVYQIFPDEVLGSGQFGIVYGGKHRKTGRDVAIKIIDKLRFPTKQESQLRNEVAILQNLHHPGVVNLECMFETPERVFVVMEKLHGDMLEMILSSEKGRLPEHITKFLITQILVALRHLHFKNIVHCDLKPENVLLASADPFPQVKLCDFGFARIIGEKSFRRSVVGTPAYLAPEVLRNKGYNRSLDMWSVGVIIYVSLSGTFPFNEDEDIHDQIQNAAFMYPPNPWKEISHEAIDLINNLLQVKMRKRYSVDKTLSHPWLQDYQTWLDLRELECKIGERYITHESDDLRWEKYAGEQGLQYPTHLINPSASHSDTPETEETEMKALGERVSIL
Experimental: [The procedure below names another target; the source lists this target under the same test.] as §1

MEK1 = biological target: T13, MEK1 (Homo sapiens, UniProt Q02750)
T13 construct: purchased Reaction Biology Corp
T13 sequence (Q02750 whole entry): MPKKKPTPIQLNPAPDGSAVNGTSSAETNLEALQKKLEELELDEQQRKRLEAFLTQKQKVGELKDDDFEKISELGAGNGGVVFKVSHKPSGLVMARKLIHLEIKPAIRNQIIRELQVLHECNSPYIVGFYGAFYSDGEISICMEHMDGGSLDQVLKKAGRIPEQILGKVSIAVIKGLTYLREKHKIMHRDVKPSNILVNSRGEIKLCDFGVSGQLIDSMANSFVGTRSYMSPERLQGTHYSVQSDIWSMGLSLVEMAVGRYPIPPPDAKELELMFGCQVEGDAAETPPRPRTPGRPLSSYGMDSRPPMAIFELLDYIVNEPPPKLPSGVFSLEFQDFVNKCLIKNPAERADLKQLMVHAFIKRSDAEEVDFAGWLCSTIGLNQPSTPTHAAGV
Experimental: [The procedure below names another target; the source lists this target under the same test.] as §1

PKCeta = biological target: T14, PKCeta (Homo sapiens, UniProt P24723)
T14 construct: purchased Reaction Biology Corp
Experimental: [The procedure below names another target; the source lists this target under the same test.] as §1

TrkA = biological target: T15, TrkA (Homo sapiens, UniProt P04629)
T15 construct: purchased Reaction Biology Corp
T15 sequence (P04629 33-796): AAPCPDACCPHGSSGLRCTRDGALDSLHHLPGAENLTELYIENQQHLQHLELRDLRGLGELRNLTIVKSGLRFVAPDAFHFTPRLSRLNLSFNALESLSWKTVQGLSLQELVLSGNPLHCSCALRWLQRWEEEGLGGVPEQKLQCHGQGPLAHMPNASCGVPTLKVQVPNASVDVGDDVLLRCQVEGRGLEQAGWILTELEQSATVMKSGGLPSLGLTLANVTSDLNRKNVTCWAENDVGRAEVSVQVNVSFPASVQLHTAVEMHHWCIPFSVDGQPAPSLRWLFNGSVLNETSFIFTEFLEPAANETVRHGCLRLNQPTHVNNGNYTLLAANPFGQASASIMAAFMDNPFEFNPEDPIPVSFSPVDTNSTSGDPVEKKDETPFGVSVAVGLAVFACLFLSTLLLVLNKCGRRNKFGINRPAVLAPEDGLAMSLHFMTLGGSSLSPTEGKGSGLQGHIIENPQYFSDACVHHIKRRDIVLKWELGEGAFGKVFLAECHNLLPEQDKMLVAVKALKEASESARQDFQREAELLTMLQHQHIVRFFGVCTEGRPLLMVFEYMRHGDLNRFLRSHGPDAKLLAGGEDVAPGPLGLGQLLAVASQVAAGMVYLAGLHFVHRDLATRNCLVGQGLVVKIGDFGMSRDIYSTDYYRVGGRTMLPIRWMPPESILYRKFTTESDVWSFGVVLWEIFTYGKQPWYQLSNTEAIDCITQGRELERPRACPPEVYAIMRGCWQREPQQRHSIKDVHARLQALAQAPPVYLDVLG
Experimental: [The procedure below names another target; the source lists this target under the same test.] as §1

PKCgamma = biological target: T16, PKCgamma (Homo sapiens, UniProt P05129)
T16 construct: purchased Reaction Biology Corp
Experimental: [The procedure below names another target; the source lists this target under the same test.] as §1

PKA = biological target: T17, PKA (Homo sapiens, UniProt P17612)
T17 construct: purchased Reaction Biology Corp
Experimental: [The procedure below names another target; the source lists this target under the same test.] as §1

PKCbeta1 = biological target: T18, PKCbeta1 (Homo sapiens, UniProt P05771)
T18 construct: purchased Reaction Biology Corp
T18 sequence (P05771 whole entry): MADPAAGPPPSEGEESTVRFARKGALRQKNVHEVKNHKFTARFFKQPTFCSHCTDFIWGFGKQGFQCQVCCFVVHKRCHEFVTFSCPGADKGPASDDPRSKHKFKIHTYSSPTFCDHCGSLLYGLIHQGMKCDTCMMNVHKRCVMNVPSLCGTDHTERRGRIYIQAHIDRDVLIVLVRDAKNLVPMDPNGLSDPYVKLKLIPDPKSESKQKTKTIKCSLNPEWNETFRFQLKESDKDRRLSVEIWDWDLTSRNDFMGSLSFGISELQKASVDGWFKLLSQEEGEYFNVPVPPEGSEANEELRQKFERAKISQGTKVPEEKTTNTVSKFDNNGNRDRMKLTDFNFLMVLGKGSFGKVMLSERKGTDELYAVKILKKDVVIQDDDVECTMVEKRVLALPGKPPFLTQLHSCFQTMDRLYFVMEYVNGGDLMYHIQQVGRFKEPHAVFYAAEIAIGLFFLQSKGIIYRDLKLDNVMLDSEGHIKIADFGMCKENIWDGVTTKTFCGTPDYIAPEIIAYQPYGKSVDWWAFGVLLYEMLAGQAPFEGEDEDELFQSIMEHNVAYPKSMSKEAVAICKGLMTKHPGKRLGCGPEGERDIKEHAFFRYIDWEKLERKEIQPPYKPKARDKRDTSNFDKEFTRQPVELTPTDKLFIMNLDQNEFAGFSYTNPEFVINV
Experimental: [The procedure below names another target; the source lists this target under the same test.] as §1

ROCK1 = biological target: T19, ROCK1 (Homo sapiens, UniProt Q13464)
T19 construct: purchased Reaction Biology Corp
Experimental: [The procedure below names another target; the source lists this target under the same test.] as §1

RSK1 = biological target: T20, RSK1 (Homo sapiens, UniProt Q15418)
T20 construct: purchased Reaction Biology Corp
Experimental: [The procedure below names another target; the source lists this target under the same test.] as §1

PKCalpha = biological target: T21, PKCalpha (Homo sapiens, UniProt P17252)
T21 construct: purchased Reaction Biology Corp
Experimental: [The procedure below names another target; the source lists this target under the same test.] as §1

Measured: IC50

O=C(NCCCN1CCCC1)c1ccc(/C=C2\Sc3ccccc3N(Cc3ccccc3F)C2=O)cc1 [Compound 481, 4-{(Z/E)-[4-(2-fluorobenzyl)-3-oxo-3,4-dihydro-2H-1,4-benzothiazin-2-ylidene]methyl}-N-[3-(pyrrolidin-1-yl)propyl]benzamide]
> 20 µM: all assays above
